In US3930838A, “S-benzyl-N,N-disec-butylthiocarbamate and its use as a rice field herbicide and a rice growth stimulant” (priority 1970, dated 1976):

Key:
Echinocloa crus galli = test: Weeding activity in screening conditions (Example 12); assay type: in vivo; conditions: 25 days
Source text: (§1) Two sets of small square tanks having 11 cm. sides, filled with field earth admixed with 30% of sand, were sowed at a depth of 0.5-1 cm. with the following grass species: Echinocloa crus galli, Setaria italica, Alopecurus myosiuroides, Lolium italicum, Digitaria sanguinalis, Avena fatua, Agrostis segetum, and Dactylis glomerata. After sowing, the earth surface of the tanks was uniformly sprayed with 2.4 cc./tank of hydroacetone solutions containing, respectively, 0, 0.05, 0.10, 0.20 and 0.30% of M3432 and of molinate, respectively, in order to obtain doses thereof corresponding to 0, 1, 2, 4, and 6 kg./ha., respectively.
(§2) Only one set of small tanks was covered with a 1 cm. layer of earth just after the treatment. All of the tanks were kept in an air-conditioned chamber identical with that described in Example 7, and were watered every day. 25 days after the treatment, the final results were examined, attributing to each treatment the following scale of values: […]

Dactylis glomerata = test: as above; assay type: in vivo; conditions: 25 days
Source text: as §1, §2

Setaria italica = test: as above; assay type: in vivo; conditions: 25 days
Source text: as §1, §2

rice [1] = test: Open field test on rice, biometric controls (Example 10); assay type: in vivo, rice cv. RIBE; conditions: 4 kg./ha., 36 days
Method: (§3) In the province of Novara, Italy, a test was performed outdoors in clay soil. For each treatment, a 600 m^2 plot provided with independent water feed was prepared. After soil working and leveling, the treatment was effected on Apr. 23, 1970, using formulations in emulsifiable oils of M3432 and of molinate, sprayed by means of mechanical devices. Only the plot treated with molinate was harrowed just after treatment in order to incorporate the product and to avoid any losses of same due to volatilization. Immediately afterwards, the plots were flooded to a water level of 10-12 cm.
(§4) Pre-germinated cv. RIBE rice was mechanically sowed broadcast on Apr. 25, 1970.
36 Days after the treatment, 50 rice plants were taken at random from each plot and subjected to biometric controls.

Agrostis segetum = test: Weeding activity in screening conditions (Example 12); assay type: in vivo; conditions: 25 days
Source text: as §1, §2

Lolium italicum = test: as above; assay type: in vivo; conditions: 25 days
Source text: as §1, §2

Avena fatua = test: as above; assay type: in vivo; conditions: 25 days
Source text: as §1, §2

Digitaria sanguinalis = test: as above; assay type: in vivo; conditions: 25 days
Source text: as §1, §2

Alopecurus myosiuroides = test: as above; assay type: in vivo; conditions: 25 days
Source text: as §1, §2

rice [2] = test: Comparative selectivity test on rice in submerged culture, air-conditioned atmosphere (Example 7); assay type: in vivo; conditions: for Main root, average value per plant / Shoot, average value per plant / Sprouted plants: 24 days
Method: Into a set of cylindrical pots having a 200 cm^2 internal surface, sieved rice field earth in a quantity of 1 kg. per pot was introduced. After leveling and wetting with 200 cc. of water, the earth surface of the pots was uniformly sprayed with hydroacetone solutions containing, respectively, 0, 0.2, 0.3, and 0.4% active product (a.p.). 4 Ml. of the solution were sprayed onto each pot, so that the amount of active product in a set of four pots was 0, 4, 6, and 8 kg./ha., respectively. Immediately after spraying, each pot was filled with water to a level of 7 cm. over the soil surface. Thereafter, the sowing was carried out at the rate of 15 pre-germinated rice seeds per pot. Three repetitions were performed for each treatment. The pots were kept in an air-conditioned atmosphere with a daily temperature variation between 10° and 25°C and a 14 hour per day light period. After 24 days, the percentage of sprouted plants and the length of the shoot were recorded.

Rice plants = test: Open field test on rice, periodical checks of the plots (Example 10); assay type: in vivo, rice cv. RIBE; conditions: 4 kg./ha., two months
Method: as §3, §4
Periodical checks were carried out on the four plots. […]

[3] = Treated surface covered with 1 cm earth layer, 2 kg./ha.
[4] = Treated surface covered with 1 cm earth layer, 4 kg./ha.
[5] = Treated surface covered with 1 cm earth layer, 6 kg./ha.

In the case of `CCSC(=O)N1CCCCCC1` [Molinate, ethyl-1-hexamethylene-imino-carbothiolate, reference compound], the Weeding activity (Echinocloa crus galli; Surface, 2 kg./ha.) is reported as 2, the Weeding activity (Echinocloa crus galli; Surface, 4 kg./ha.) is reported as 1/2 and the Weeding activity (Echinocloa crus galli; Surface, 6 kg./ha.) is reported as 1/2. For the same molecule, the Weeding activity (Echinocloa crus galli; [3]) was 3, the Weeding activity (Echinocloa crus galli; [4]) was 3 and the Weeding activity (Echinocloa crus galli; [5]) was 3/4. The Weeding activity (Dactylis glomerata; Surface, 2 kg./ha.) was 1/2, the Weeding activity (Dactylis glomerata; Surface, 4 kg./ha.) was 1/2 and the Weeding activity (Dactylis glomerata; Surface, 6 kg./ha.) was 3. For the same molecule, the Weeding activity (Dactylis glomerata; [3]) was 3, the Weeding activity (Dactylis glomerata; [4]) was 4/3 and the Weeding activity (Dactylis glomerata; [5]) was 4/3. The Weeding activity (Setaria italica; Surface, 2 kg./ha.) was 0/1, the Weeding activity (Setaria italica; Surface, 4 kg./ha.) was 0/1 and the Weeding activity (Setaria italica; Surface, 6 kg./ha.) was 0/1. For the same molecule, the Weeding activity (Setaria italica; [3]) was 3, the Weeding activity (Setaria italica; [4]) was 3 and the Weeding activity (Setaria italica; [5]) was 3. For the same molecule, the Main root (rice [1]) was 7.67 cm, the “Roots, average weight per plant on dry basis” value (rice [1]) was 1.866 g and the Secondary roots (rice [1]) was 9.06 no. For the same molecule, the Shoot (rice [1]) was 25.72 cm, the “Shoot, average weight per plant on dry basis” value (rice [1]) was 3.257 g and the “Total, average weight per plant on dry basis” value (rice [1]) was 5.123 g. For the same molecule, the Weeding activity (Agrostis segetum; Surface, 2 kg./ha.) was 2, the Weeding activity (Agrostis segetum; Surface, 4 kg./ha.) was 4 and the Weeding activity (Agrostis segetum; Surface, 6 kg./ha.) was 4. The Weeding activity (Agrostis segetum; [3]) was 4, the Weeding activity (Agrostis segetum; [4]) was 4 and the Weeding activity (Agrostis segetum; [5]) was 4. The Weeding activity (Lolium italicum; Surface, 2 kg./ha.) was 0/1, the Weeding activity (Lolium italicum; Surface, 4 kg./ha.) was 2 and the Weeding activity (Lolium italicum; Surface, 6 kg./ha.) was 2/3. For the same molecule, the Weeding activity (Lolium italicum; [3]) was 3/2, the Weeding activity (Lolium italicum; [4]) was 3/4 and the Weeding activity (Lolium italicum; [5]) was 4. For the same molecule, the Weeding activity (Avena fatua; Surface, 2 kg./ha.) was 1, the Weeding activity (Avena fatua; Surface, 4 kg./ha.) was 3/2 and the Weeding activity (Avena fatua; Surface, 6 kg./ha.) was 4/3. The Weeding activity (Avena fatua; [3]) was 4, the Weeding activity (Avena fatua; [4]) was 4 and the Weeding activity (Avena fatua; [5]) was 4. For the same molecule, the Weeding activity (Digitaria sanguinalis; Surface, 2 kg./ha.) was 0, the Weeding activity (Digitaria sanguinalis; Surface, 4 kg./ha.) was 3/4 and the Weeding activity (Digitaria sanguinalis; Surface, 6 kg./ha.) was 4. For the same molecule, the Weeding activity (Digitaria sanguinalis; [3]) was 4, the Weeding activity (Digitaria sanguinalis; [4]) was 4 and the Weeding activity (Digitaria sanguinalis; [5]) was 4. For the same molecule, the Weeding activity (Alopecurus myosiuroides; Surface, 2 kg./ha.) was 1/2, the Weeding activity (Alopecurus myosiuroides; Surface, 4 kg./ha.) was 2 and the Weeding activity (Alopecurus myosiuroides; Surface, 6 kg./ha.) was 3. The Weeding activity (Alopecurus myosiuroides; [3]) was 3, the Weeding activity (Alopecurus myosiuroides; [4]) was 4/3 and the Weeding activity (Alopecurus myosiuroides; [5]) was 4/3. The “Main root, average value per plant” value (rice [2]; 4 kg./ha.) was 7.4 cm, the “Shoot, average value per plant” value (rice [2]; 4 kg./ha.) was 15.3 cm and the Sprouted plants (rice [2]; 4 kg./ha.) was 42.3%. The “Main root, average value per plant” value (rice [2]; 6 kg./ha.) was 3.9 cm, the “Shoot, average value per plant” value (rice [2]; 6 kg./ha.) was 8.2 cm and the Sprouted plants (rice [2]; 6 kg./ha.) was 20.0%. For the same molecule, the “Main root, average value per plant” value (rice [2]; 8 kg./ha.) was 4.6 cm, the “Shoot, average value per plant” value (rice [2]; 8 kg./ha.) was 6.6 cm and the Sprouted plants (rice [2]; 8 kg./ha.) was 11.0%. The “Margin of safety on rice” value (rice [2]; rice growth unfavorably affected even at 6 kg./ha.) was “narrow margin of safety”, the Average height (Rice plants) was 35-45 cm and the Rice plants appearance (Rice plants) was “normal”. The “Stand (number of tillers per unit of area)” value (Rice plants) was “normal”.
